System: Holstein calves
Test: Test on anion regulating activity (urinary pH)
Type: in vivo
Conditions: Table 3 and FIG. 1 summary
Method: If a DCAD value is positive, the urinary pH is 7-8.5. It is also known that if an anion regulator is added, and as a result the feed is changed to show a negative DCAD value, the urinary pH of animals to which such feed has been fed is reduced and will show a value of 6.5-5.5 when the anion regulator has been added in an appropriate amount. […] (1995), Sep., p.634 (Japanese version).
Experiments were conducted using six(6) Holstein calves with a body weight of approximately 200 kg. They were divided into three groups, two calves in a group. The groups were each fed with one of the following three(3) types of experimental feeds. Feed consisting of […] concentrated feed (“Beef-fast”, ex Itochu Feed Co.), 550 g of timothy-hay and 550 g of alfalfa hay cubes was fed, twice a day, at 9 and 16 o'clock, for one week before the start of the experiment, for adaptation.
These three(3) types of mixed feeds were separately supplied to each group at 9 and 16 o'clock on the same day and at 9 o'clock on the next day. After 10 minutes, each mixed feed was removed, and subsequently, a mixture of 900 g of concentrated feed, 500 g of timothy-hay and 550 g of alfalfa hay cubes, was supplied instead.
In the table and figure, for example, terms Lys HCl 1 and Lys HCl 2 indicate respectively the two calves in the first group which was fed with Lys HCl (Lys HCl-feeded group).

| SMILES | Effectiveness as anion regulator | Reduction of urinary pH compared with NH4Cl |
| --- | --- | --- |
| Cl.N=C(N)NCCC[C@H](N)C(=O)O [L-arginine hydrochloride, L-arginine monohydrochloride] | effective as anion regulators | reduce urinary pH better than NH4Cl |
| Cl.NCCCC[C@H](N)C(=O)O [L-lysine hydrochloride, L-lysine monohydrochloride] | effective as anion regulators | reduce urinary pH better than NH4Cl |
